Tests used:
MOLM-13 cells = test: MOLM-13 cell proliferation experiment; type: cell-based; settings: Homo sapiens, MOLM-13, 72 h, MOLM-13 cell proliferation, 3 days, Tables 3.1 and 3.2; read-out: IC50
Method: After 3 days, 5 µL of CellTiter-Glo reagent (Promega, ZG7572) was added to each well, and the plates were kept at room temperature in the dark for 10 minutes. The […] was detected by Spectra max i3 (Molecular Devices). The relative growth rate of the treated cells was compared with that of DMSO control.

SHP2^E76A protein = SHP2^E76A protein (Homo sapiens (Human), UniProt Q06124, E76A); test: SHP2 enzyme activity inhibition experiment; type: biochemical; settings: SHP2 enzyme activity, Tables 1.1 and 1.2; read-out: IC50
Method: Compound powders were dissolved in DMSO to prepare mother liquor.
During the experiment, the stock solutions of the compounds were subjected to 3-fold gradient dilution with DMSO, and 10 different test concentrations of each compound were set. […] The protein used was the activated protein SHP^2E76A with amino acid mutation at position 76 of the protein, and the substrate used was DiFMUP (Invitrogen, E12020). […] 50 µL of enzyme solution was added to the detection wells, followed by 50 µL of substrate. […] GraphPad Prism 5 was used for nonlinear regression analysis, and the curve of enzyme activity versus compound concentration was fitted by the equation Y=Bottom+(Top-Bottom)/(1+10^((Log IC50−X)*HillSlope)) to calculate the IC50 value of each compound.

Chain of SHP2^E76A protein (Q06124 whole entry E76A): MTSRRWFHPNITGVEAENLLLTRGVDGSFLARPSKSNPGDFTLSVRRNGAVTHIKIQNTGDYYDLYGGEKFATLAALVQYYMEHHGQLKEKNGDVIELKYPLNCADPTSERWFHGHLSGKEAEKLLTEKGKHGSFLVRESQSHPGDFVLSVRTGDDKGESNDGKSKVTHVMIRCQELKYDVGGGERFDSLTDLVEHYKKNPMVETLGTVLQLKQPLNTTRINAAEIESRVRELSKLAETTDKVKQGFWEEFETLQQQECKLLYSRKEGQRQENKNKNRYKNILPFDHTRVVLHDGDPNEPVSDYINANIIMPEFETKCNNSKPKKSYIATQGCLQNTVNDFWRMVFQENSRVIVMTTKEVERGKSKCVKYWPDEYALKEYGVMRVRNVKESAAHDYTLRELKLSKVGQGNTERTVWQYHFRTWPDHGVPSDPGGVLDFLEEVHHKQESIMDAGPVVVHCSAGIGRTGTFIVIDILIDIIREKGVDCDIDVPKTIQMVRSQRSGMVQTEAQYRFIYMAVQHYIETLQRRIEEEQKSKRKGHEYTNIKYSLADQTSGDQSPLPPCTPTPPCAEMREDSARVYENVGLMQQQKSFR

Row | Structure (SMILES) | IC50 (MOLM-13 cells) | IC50 (SHP2^E76A protein)
1 | CC1C[C@@H](N)C2(CCN(c3ncc(Sc4ccnc(Cl)c4Cl)c4nncn34)CC2)C1 (stereo partly drawn) [(1R)-8-(8-((2,3-dichloropyridin-4-yl)thio)-[1,2,4]triazolo[4,3-c]pyrimidin-5-yl)-3-methyl-8-azaspiro[4.5]decan-1-amine] | 0.1 to 1 µM | < 0.1 µM
2 | N[C@@H]1COCC12CCN(c1ncc(Sc3cccc(Cl)c3Cl)c3nccn13)CC2 [(S)-8-(8-((2,3-dichlorophenyl)thio)imidazo[1,2-c]pyrimidin-5-yl)-2-oxa-8-azaspiro[4.5]decan-4-amine] | 0.1 to 1 µM | < 0.1 µM
3 | Cc1ncccc1Sc1cnc(N2CCC3(CCC[C@H]3N)CC2)n2ccnc12 | 0.1 to 1 µM | 
4 | N[C@@H]1CCCC12CCN(c1ncc(Sc3cccc(NC(=O)c4c(O)nc5n(c4=O)CCCC5)c3Cl)c3nccn13)CC2 [(R)-N-(3-((5-(1-amino-8-azaspiro[4.5]decan-8-yl)imidazo[1,2-c]pyrimidin-8-yl)thio)-2-chlorophenyl)-2-hydroxy-4-oxo-6,7,8,9-tetrahydro-4H-pyrido[1,2-a]pyrimidin-3-carboxamide] | 0.1 to 1 µM | 0.1 to 1 µM
5 | N[C@@H]1CCCC12CCN(c1ncc(Sc3ccccc3)c3nccn13)CC2 [(R)-8-(8-(phenylthio)imidazo[1,2-c]pyrimidin-5-yl)-8-azaspiro[4.5]decan-1-amine] | 0.1 to 1 µM | 0.1 to 1 µM
6 | CC1(N)CCN(c2ncc(Sc3cccc(Cl)c3Cl)c3nccn23)CC1 [1-(8-((2,3-dichlorophenyl)thio)imidazo[1,2-c]pyrimidin-5-yl)-4-methylpiperidin-4-amine] | 0.1 to 1 µM | 0.1 to 1 µM
7 | N[C@@H]1CCCC12CCN(c1ncc(Sc3ccncc3Cl)c3ncnn13)CC2 [(R)-8-(8-((3-chloropyridin-4-yl)thio)-[1,2,4]triazolo[1,5-c]pyrimidin-5-yl)-8-azaspiro[4.5]decan-1-amine] | 1 to 10 µM | 1 to 10 µM
8 | C[C@@H]1OCC2(CCN(c3ncc(Sc4cc(N)ncc4Cl)c4nncn34)CC2)[C@@H]1N | 1 to 10 µM | < 0.1 µM
9 | N[C@@H]1CCCC12CCN(c1ncc(Sc3cccc4ccccc34)c3nncn13)CC2 [(R)-8-(8-(naphthalen-1-ylthio)-[1,2,4]triazolo[4,3-c]pyrimidin-5-yl)-8-azaspiro[4.5]decan-1-amine] | 0.1 to 1 µM | < 0.1 µM
10 | COc1ccccc1Sc1cnc(N2CCC3(CCC[C@H]3N)CC2)n2ncnc12 | 1 to 10 µM | 
11 | NCC1(c2ccccc2)CCN(c2ncc(Sc3cccc(Cl)c3Cl)c3nncn23)CC1 [(1-(8-((2,3-dichlorophenyl)thio)-[1,2,4]triazolo[4,3-c]pyrimidin-5-yl)-4-phenylpiperidin-4-yl)methanamine] | 0.1 to 1 µM | < 0.1 µM
12 | CC1C[C@@H](N)C2(CCN(c3ncc(Sc4cc(N)nc(Cl)c4Cl)c4nccn34)CC2)C1 (stereo partly drawn) [(1R)-8-(8-((6-amino-2,3-dichloropyridin-4-yl)thio)imidazo[1,2-c]pyrimidin-5-yl)-3-methyl-8-azaspiro[4.5]decan-1-amine] | < 0.1 µM | < 0.1 µM
13 | Nc1cc(Sc2cnc(N3CCC4(CC3)COC[C@H]4N)n3cnnc23)c(Cl)c(Cl)n1 [(S)-8-(8-((6-amino-2,3-dichloropyridin-4-yl)thio)-[1,2,4]triazolo[4,3-c]pyrimidin-5-yl)-2-oxa-8-azaspiro[4.5]decan-4-amine] | 1 to 10 µM | < 0.1 µM
14 | NC1CCCN(c2ncc(Sc3cccc(Cl)c3Cl)c3ncnn23)CC1 (stereo not drawn) [1-(8-((2,3-dichlorophenyl)thio)-[1,2,4]triazolo[1,5-c]pyrimidin-5-yl)azepan-4-amine] | 1 to 10 µM | 0.1 to 1 µM
15 | NCCC1CCN(c2ncc(Sc3cccc(Cl)c3Cl)c3nncn23)CC1 [2-(1-(8-((2,3-dichlorophenyl)thio)-[1,2,4]triazolo[4,3-c]pyrimidin-5-yl)piperidin-4-yl)ethan-1-amine] |  | 1 to 10 µM
16 | Nc1ccc(Sc2cnc(N3CCC4(CCC[C@H]4N)CC3)n3ncnc23)cc1 |  | 1 to 10 µM
17 | N[C@@H]1CCCC12CCN(c1ncc(Sc3cccnc3Cl)c3nccn13)CC2 [(R)-8-(8-((2-chloropyridin-3-yl)thio)imidazo[1,2-c]pyrimidin-5-yl)-8-azaspiro[4.5]decan-1-amine] |  | < 0.1 µM
18 | COC(=O)CCSc1cnc(N2CCC3(CCC[C@H]3N)CC2)n2cnnc12 [Methyl (R)-3-((5-(1-amino-8-azaspiro[4.5]decan-8-yl)-[1,2,4]triazolo[4,3-c]pyrimidin-8-yl)thio)propionate] |  | 1 to 10 µM
19 | NC1CC2(CCN(c3ncc(Sc4cccc(Cl)c4Cl)c4nncn34)CC2)C1 [7-(8-((2,3-dichlorophenyl)thio)-[1,2,4]triazolo[4,3-c]pyrimidin-5-yl)-7-azaspiro[3.5]nonan-2-amine] |  | 1 to 10 µM
20 | COc1ccccc1Sc1cnc(N2CCC3(CCC[C@H]3N)CC2)n2ncnc12 [(R)-8-(8-((2-methoxyphenyl)thio)-[1,2,4]triazolo[1,5-c]pyrimidin-5-yl)-8-azaspiro[4.5]decan-1-amine] |  | 0.1 to 1 µM
21 | N[C@@H]1CCCC12CCN(c1ncc(Sc3ccnc4ccccc34)c3nncn13)CC2 [(R)-8-(8-(quinolin-4-ylthio)-[1,2,4]triazolo[4,3-c]pyrimidin-5-yl)-8-azaspiro[4.5]decan-1-amine] |  | < 0.1 µM

Row | Structure (SMILES) | IC50 (MOLM-13 cells) | IC50 (SHP2^E76A protein)
22 | N[C@@H]1CCCC12CCN(c1ncc(Sc3ccccc3)c3ncnn13)CC2 [(R)-8-(8-(phenylthio)-[1,2,4]triazolo[1,5-c]pyrimidin-5-yl)-8-azaspiro[4.5]decan-1-amine] |  | 1 to 10 µM
23 | N[C@@H]1CCC2CN(c3ncc(Sc4cccc(Cl)c4Cl)c4nncn34)CC21 (stereo partly drawn) [(4R)-2-(8-((2,3-dichlorophenyl)thio)-[1,2,4]triazolo[4,3-c]pyrimidin-5-yl)octahydrocyclopenta[c]pyrrol-4-amine] |  | 1 to 10 µM
24 | Cc1ncccc1Sc1cnc(N2CCC3(CCC[C@H]3N)CC2)n2cnnc12 | 1 to 10 µM | 
25 | N[C@@H]1CCCC12CCN(c1ncc(Sc3cccc4c3C(=O)C(=O)N4)c3nccn13)CC2 |  | 0.1 to 1 µM
26 | N[C@H]1CCCC12CCN(c1ncc(Sc3cccc(Cl)c3Cl)c3nncn13)CC2 [(S)-8-(8-((2,3-dichlorophenyl)thio)-[1,2,4]triazolo[4,3-c]pyrimidin-5-yl)-8-azaspiro[4.5]decan-1-amine] |  | 1 to 10 µM
27 | Cc1nc(N)cc(Sc2cnc(N3CCC4(CCC[C@H]4N)CC3)n3ccnc23)c1Cl |  | < 0.1 µM
28 | N[C@@H]1CCCC12CCN(c1ncc(Sc3cccnc3)c3ncnn13)CC2 [(R)-8-(8-(pyridin-3-ylthio)-[1,2,4]triazolo[1,5-c]pyrimidin-5-yl)-8-azaspiro[4.5]decan-1-amine] |  | 1 to 10 µM
29 | NCC1(c2ccccc2)CCN(c2ncc(Sc3cccc(Cl)c3Cl)c3nccn23)CC1 [(1-(8-((2,3-dichlorophenyl)thio)imidazo[1,2-c]pyrimidin-5-yl)-4-phenylpiperidin-4-yl)methanamine] |  | 0.1 to 1 µM
30 | C[C@@H]1OCC2(CCN(c3ncc(Sc4cc(N)ncc4Cl)c4nccn34)CC2)[C@@H]1N [listing 1 of 2 here] | 0.1 to 1 µM | 
31 | C[C@@H]1OCC2(CCN(c3ncc(Sc4cc(N)ncc4Cl)c4nccn34)CC2)[C@@H]1N [listing 2 of 2 here] |  | < 0.1 µM
32 | CC1(C)COC2(CCN(c3ncc(Sc4cccc(Cl)c4Cl)c4nccn34)CC2)[C@@H]1N [(R)-8-(8-((2,3-dichlorophenyl)thio)imidazo[1,2-c]pyrimidin-5-yl)-3,3-dimethyl-1-oxa-8-azaspiro[4.5]decan-4-amine] |  | 0.1 to 1 µM
33 | CN(C)C(=O)C(=O)Nc1cccc(Sc2cnc(N3CCC4(CCC[C@H]4N)CC3)n3ccnc23)c1Cl | 0.1 to 1 µM | 
34 | C[C@H]1OCC2(CCN(c3ncc(Sc4cccc(Cl)c4Cl)c4nncn34)CC2)[C@H]1N |  | 1 to 10 µM
35 | Cc1ncccc1Sc1cnc(N2CCC3(CCC[C@H]3N)CC2)n2ccnc12 [(R)-8-(8-((2-methylpyridin-3-yl)thio)imidazo[1,2-c]pyrimidin-5-yl)-8-azaspiro[4.5]decan-1-amine] |  | < 0.1 µM
36 | Cc1nccc(Sc2cnc(N3CCC4(CC3)COC[C@H]4N)n3cnnc23)c1Cl [(S)-8-(8-((3-chloro-2-methylpyridin-4-yl)thio)-[1,2,4]triazolo[4,3-c]pyrimidin-5-yl)-2-oxa-8-azaspiro[4.5]decan-4-amine] | 0.1 to 1 µM | 
37 | N[C@@H]1CCCC12CCN(c1ncc(Sc3ccc(Cl)cc3)c3nncn13)CC2 [(R)-8-(8-((4-chlorophenyl)thio)-[1,2,4]triazolo[4,3-c]pyrimidin-5-yl)-8-azaspiro[4.5]decan-1-amine] |  | 1 to 10 µM
38 | C[C@H]1OCC2(CCN(c3ncc(Sc4ccnc(N)c4Cl)c4nncn34)CC2)[C@H]1N |  | 1 to 10 µM
39 | Nc1ccc(Sc2cnc(N3CCC4(CCC[C@H]4N)CC3)n3ncnc23)c(Cl)n1 [(R)-8-(8-((6-amino-2-chloropyridin-3-yl)thio)-[1,2,4]triazolo[1,5-c]pyrimidin-5-yl)-8-azaspiro[4.5]decan-1-amine] |  | 1 to 10 µM
40 | N[C@@H]1CCCC12CCN(c1ncc(-c3cccc(Cl)c3Cl)c3nncn13)CC2 [(R)-8-(8-(2,3-dichlorophenyl)-[1,2,4]triazolo[4,3-c]pyrimidin-5-yl)-8-azaspiro[4.5]decan-1-amine] |  | 1 to 10 µM
41 | CN[C@@H]1CCCC12CCN(c1ncc(Sc3cccc(Cl)c3Cl)c3nncn13)CC2 [(R)-8-(8-((2,3-dichlorophenyl)thio)-[1,2,4]triazolo[4,3-c]pyrimidin-5-yl)-N-methyl-8-azaspiro[4.5]decan-1-amine] |  | 1 to 10 µM
42 | Cc1nccc(Sc2cnc(N3CCC4(CC3)COC[C@H]4N)n3cnnc23)c1Cl |  | 0.1 to 1 µM
